Results from ChEMBL document CHEMBL1201862, “PubChem BioAssay data set” (2004).
Each block holds one compound with its values, some of them ahead of it. The source made the active and inactive calls.

Columns and labels:
[1] = molecular target: T1, Probable nicotinate-nucleotide adenylyltransferase (Staphylococcus aureus (strain N315), UniProt P65502); format: functional, Staphylococcus aureus subsp. aureus N315; details: read-out: IC50_Mean;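 on IC50 Mean: confirmatory dose-response retesting of NadD inhibitor hits first found in an ultra-high-throughput screen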
[2] = molecular target: T2, Carboxy-terminal domain RNA polymerase II polypeptide A small phosphatase 1 (Homo sapiens, UniProt Q9GZU7); test: inhibitors of CTDSP1, concentration-response testing, biochemical assay, absorbance-based, actives from ultra-high-throughput screening (AID 540297); format: functional
T2 sequence (Q9GZU7 whole entry): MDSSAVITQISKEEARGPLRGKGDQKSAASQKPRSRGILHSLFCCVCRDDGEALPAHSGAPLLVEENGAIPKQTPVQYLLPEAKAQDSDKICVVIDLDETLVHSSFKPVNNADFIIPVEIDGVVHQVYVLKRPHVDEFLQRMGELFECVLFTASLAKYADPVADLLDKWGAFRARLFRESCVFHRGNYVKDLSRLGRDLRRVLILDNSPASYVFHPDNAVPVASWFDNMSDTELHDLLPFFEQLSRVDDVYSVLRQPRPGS

Albumin = Albumin (Bos taurus, UniProt P02769); test: Counterscreen for inhibitors of T-cell receptor (TCR)-CD3 interaction: Fluorescence-based biochemical high throughput dose response assay to identify inhibitors of T-cell receptor (TCR)-CD3 interaction using a TAMRA-labeled BSA probe.; format: functional
[3] = molecular target: T1, Probable nicotinate-nucleotide adenylyltransferase; format: functional, Staphylococcus aureus subsp. aureus N315
[4] = LGR2 antagonists, dose response, cell-based, HEK293, CRE-luciferase reporter, cherry pick, set 2 (AID 743343); format: functional;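 further: transfected cells were stimulated with diluted bursicon conditioned medium after compound addition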
[5] = miR-122 activators in hepatoma reporter cells, dose response, cell-based, Huh7 psiCHECK-miR122, Renilla luciferase, cherry-picked (AID 651956); format: functional;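 further: huh7 hepatoma cells stably carrying a psiCHECK-2 miR-122 sensor plasmid; renilla luciferase signal reporting endogenous miR-122 activity after 48 h compound exposure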
[6] = HEK293T cytotoxicity, dose response, cytotoxicity control for miR-122 modulator project, cell-based, activator set, cherry-pick (AID 720690); format: functional;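 further: HEK293T human cells scored for general mammalian cytotoxicity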
[7] = HEK293 cell cytotoxicity, dose response, cytotoxicity control, plate reader, cherry-picked samples (AID 743446); format: functional, cell-based
[8] = A549 cell cytotoxicity, dose response, cytotoxicity control, plate reader, cherry-pick, antagonist series (AID 743412); format: functional, cell-based
[9] = HepG2 cell cytotoxicity, dose response, cytotoxicity control, plate reader, cherry-pick, antagonist series (AID 743416); format: functional, cell-based
[10] = MC4R antagonists, dose response, counter-screen for LGR2 antagonist project, cell-based, plate reader, cherry pick (AID 743444); format: functional;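 further: transfected HEK 293 cells stimulated with alpha-MSH peptide; potency of inhibitors of the alpha-MSH evoked signal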
[11] = ADAM10 protease inhibitors, dose response, selectivity assay for ADAM17 exosite inhibitor project, biochemical, FRET peptide substrate, recombinant human ADAM10 (AID 743259);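 further: ADAM10 enzyme cleaving a FRET peptide substrate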
[12] = molecular target: T3, Disintegrin and metalloproteinase domain-containing protein 17 (Homo sapiens, UniProt P78536); test: exosite inhibitors of ADAM17, dose response, biochemical (AID 743260)
[13] = Luminescence-based cell-based high throughput dose response assay to identify activators of the DAF-12 from the parasite S. stercoralis (ssDAF-12).; format: functional
[14] = molecular target: T4, Oxysterols receptor LXR-beta (Homo sapiens, UniProt P55055); test: LXR agonists, Gal4 luciferase reporter, dose response, counter-screen for ssDAF-12 agonist project, cell-based, luminescence, HEK293, S. stercoralis campaign (AID 720737); format: functional; details: read-out: IC50 (the source's name)
T4 sequence (P55055 whole entry): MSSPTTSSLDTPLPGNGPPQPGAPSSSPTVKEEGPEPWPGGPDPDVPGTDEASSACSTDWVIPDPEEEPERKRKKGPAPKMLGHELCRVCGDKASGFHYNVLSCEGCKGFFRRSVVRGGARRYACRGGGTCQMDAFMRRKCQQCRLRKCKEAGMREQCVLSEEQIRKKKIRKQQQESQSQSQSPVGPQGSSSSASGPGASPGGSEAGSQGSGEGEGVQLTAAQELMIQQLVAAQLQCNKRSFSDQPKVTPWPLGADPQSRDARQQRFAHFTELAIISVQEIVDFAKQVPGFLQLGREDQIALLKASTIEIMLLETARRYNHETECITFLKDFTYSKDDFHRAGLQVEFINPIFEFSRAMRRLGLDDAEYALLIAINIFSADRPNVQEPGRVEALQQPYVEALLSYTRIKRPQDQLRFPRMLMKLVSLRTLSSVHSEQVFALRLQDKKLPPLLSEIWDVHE

[15] = NIH:OVCAR-3 ovarian cancer cell cytotoxicity, dose response, PAX8 inhibitor project, plate reader, dry powder samples (AID 743044); format: functional, cell-based
Paired box protein Pax-8 = Paired box protein Pax-8 (Homo sapiens, UniProt Q06710); test: inhibitors of PAX8-driven TPO luciferase reporter, dose response, RMG-I cells, cherry-pick (AID 687027); format: functional, cell-based;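 further: luciferase reporter driven by Pax8 target thyroperoxidase promoter measured by SteadyGlo luminescence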
[16] = A2780 ovarian cancer cell cytotoxicity, dose response, cytotoxicity control, plate reader, dry powder samples (AID 743046); format: functional, cell-based
HeLa = test: HeLa cell cytotoxicity, dose response, cytotoxicity control, ATP luminescence, cherry-pick samples (AID 687004); format: functional, cell-based; details: Homo sapiens
[17] = molecular target: T3, Disintegrin and metalloproteinase domain-containing protein 17; test: ADAM17 protease inhibitors, dose response, counter-screen for ADAM10 exosite inhibitor project, biochemical, quenched FRET substrate (AID 743253)
[18] = ADAM10 inhibitors, peptide cleavage, dose response, biochemical, QFRET (AID 743254);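 further: ADAM10 enzyme with the DM2 quenched FRET peptide as substrate; EDANS fluorescence gain as the protease cuts the substrate; inhibitor potency against ADAM10 proteolytic activity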
[19] = T. cruzi growth inhibition in host cells, dose response, cell-based, plate reader, dry powder, set 2 (AID 652275); format: functional
[20] = molecular target: Endoplasmic reticulum aminopeptidase 1 (Homo sapiens, UniProt Q9NZ08); test: ERAP1 aminopeptidase inhibitors, dose response, biochemical, cherry-pick, set 2, plate reader (AID 743314)
[21] = inhibitors of Vif binding to APOBEC3G peptide, primary screen, biochemical, TR-FRET, GST-Vif 1-94, biotin-A3G peptide, dose response retest (AID 1117319); format: functional;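 further: TR-FRET signal of purified GST-Vif binding a biotinylated A3G peptide; inhibitors lower the FRET signal by blocking Vif and A3G binding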
[22] = HepG2 cell cytotoxicity, dose response, cytotoxicity control, cherry-picked samples (AID 1159577); format: functional, cell-based
[23] = P. falciparum Dd2 growth inhibitors, dose response, SYBR Green, cherry-picked samples (AID 1159567); format: functional, cell-based
[24] = molecular target: RNA-editing ligase 1, mitochondrial (Trypanosoma brucei brucei, UniProt P86926); test: TbREL1 ligase inhibitors, dose response, biochemical, fluorescence, Trypanosoma brucei (AID 1117295); format: functional
[25] = HCT116 cell viability decrease, GSK3B pretreatment – CellTiter-Glo, IC50, dose response (AID 1117339); format: functional; details: HCT-116
[26] = Concentration-dependent survival of SW480 colon cancer line, luminescence detection with CellTiter-Glo, half-maximal inhibitory concentration (AID 1117338); format: functional
[27] = cytotoxicity toward Colo320 cells – cell-based, CellTiter-Glo luminescence, IC50, dose response (AID 1117334); format: functional; details: COLO 320
[28] = cytotoxicity toward HT-29 cells – cell-based, CellTiter-Glo luminescence, IC50, dose response (AID 1117330); format: functional
[29] = SNU-C1 cell viability reduction, dose response, CellTiter-Glo luminescence (AID 1117323); format: functional, cell-based
[30] = cytotoxicity toward HCT116 cells – cell-based, CellTiter-Glo luminescence, IC50, dose response (AID 1117332); format: functional; details: HCT-116
[31] = CellTiter-Glo luminescent dose response of DLD-1 viability loss (AID 1117352); format: functional
[32] = RKO cell viability reduction, dose response, CellTiter-Glo luminescence (AID 1117322); format: functional

T3 sequence (P78536 whole entry, the tested form may be a part): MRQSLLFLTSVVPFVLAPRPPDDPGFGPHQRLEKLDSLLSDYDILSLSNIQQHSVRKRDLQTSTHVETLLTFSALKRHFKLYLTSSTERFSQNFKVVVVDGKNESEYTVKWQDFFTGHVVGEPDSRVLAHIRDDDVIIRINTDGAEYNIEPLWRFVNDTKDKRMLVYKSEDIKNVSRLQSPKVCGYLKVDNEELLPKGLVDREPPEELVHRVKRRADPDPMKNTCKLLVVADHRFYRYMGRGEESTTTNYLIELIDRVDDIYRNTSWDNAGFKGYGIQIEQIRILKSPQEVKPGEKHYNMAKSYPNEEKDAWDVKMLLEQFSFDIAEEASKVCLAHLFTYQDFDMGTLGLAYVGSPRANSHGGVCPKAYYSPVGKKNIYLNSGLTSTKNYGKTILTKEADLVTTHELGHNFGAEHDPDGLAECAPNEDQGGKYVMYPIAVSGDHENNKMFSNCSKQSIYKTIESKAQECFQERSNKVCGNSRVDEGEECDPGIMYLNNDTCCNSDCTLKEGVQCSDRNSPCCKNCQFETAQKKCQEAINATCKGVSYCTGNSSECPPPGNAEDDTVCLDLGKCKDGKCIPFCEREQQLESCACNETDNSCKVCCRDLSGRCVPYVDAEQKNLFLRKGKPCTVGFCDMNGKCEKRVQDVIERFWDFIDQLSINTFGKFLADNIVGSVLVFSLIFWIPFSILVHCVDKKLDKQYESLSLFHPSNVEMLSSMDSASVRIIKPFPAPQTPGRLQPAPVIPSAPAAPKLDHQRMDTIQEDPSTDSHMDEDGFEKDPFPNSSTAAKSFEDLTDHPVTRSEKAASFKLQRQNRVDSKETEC
Sequence of RNA-editing ligase 1, mitochondrial (P86926 whole entry): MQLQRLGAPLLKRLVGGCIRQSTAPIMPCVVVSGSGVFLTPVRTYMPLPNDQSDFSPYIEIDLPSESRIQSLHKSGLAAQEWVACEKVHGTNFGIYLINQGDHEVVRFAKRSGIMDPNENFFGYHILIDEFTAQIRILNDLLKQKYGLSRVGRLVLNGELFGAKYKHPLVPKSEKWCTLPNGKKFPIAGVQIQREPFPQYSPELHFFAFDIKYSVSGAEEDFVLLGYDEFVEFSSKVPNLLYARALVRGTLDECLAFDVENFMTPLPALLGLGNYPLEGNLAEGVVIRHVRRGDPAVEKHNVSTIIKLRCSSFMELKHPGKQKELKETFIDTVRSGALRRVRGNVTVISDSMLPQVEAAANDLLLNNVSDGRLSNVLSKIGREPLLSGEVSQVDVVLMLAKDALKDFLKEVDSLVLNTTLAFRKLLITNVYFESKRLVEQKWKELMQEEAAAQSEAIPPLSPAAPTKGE
Sequence of Albumin (P02769 whole entry): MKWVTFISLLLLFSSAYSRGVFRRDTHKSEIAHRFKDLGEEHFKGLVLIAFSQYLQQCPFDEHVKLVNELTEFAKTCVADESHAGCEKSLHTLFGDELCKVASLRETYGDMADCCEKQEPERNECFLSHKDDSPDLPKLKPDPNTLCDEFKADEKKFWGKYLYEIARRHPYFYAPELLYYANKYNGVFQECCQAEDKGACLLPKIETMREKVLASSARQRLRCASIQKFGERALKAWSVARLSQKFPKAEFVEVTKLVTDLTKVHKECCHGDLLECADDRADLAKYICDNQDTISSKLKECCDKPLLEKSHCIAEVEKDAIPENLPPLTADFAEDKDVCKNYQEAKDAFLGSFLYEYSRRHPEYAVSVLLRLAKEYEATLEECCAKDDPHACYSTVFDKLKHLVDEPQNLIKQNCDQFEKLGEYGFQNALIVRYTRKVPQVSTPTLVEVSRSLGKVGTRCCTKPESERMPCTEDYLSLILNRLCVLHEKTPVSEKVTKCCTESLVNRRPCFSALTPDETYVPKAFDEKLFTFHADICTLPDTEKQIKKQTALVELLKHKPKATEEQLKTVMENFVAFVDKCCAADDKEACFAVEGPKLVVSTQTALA
Sequence of Paired box protein Pax-8 (Q06710 whole entry): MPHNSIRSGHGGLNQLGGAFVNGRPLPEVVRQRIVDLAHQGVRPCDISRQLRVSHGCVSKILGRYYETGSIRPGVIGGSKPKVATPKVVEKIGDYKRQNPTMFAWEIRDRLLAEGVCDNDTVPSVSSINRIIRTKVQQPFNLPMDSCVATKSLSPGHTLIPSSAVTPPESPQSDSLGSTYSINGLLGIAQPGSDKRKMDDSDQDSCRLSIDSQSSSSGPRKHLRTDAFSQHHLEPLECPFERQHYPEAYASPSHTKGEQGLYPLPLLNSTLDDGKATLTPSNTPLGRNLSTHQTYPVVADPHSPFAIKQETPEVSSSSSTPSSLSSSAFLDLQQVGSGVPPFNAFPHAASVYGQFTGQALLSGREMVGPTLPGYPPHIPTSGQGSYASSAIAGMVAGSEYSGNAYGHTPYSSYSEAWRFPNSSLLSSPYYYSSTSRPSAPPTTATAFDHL
Sequence of Endoplasmic reticulum aminopeptidase 1 (Q9NZ08 whole entry): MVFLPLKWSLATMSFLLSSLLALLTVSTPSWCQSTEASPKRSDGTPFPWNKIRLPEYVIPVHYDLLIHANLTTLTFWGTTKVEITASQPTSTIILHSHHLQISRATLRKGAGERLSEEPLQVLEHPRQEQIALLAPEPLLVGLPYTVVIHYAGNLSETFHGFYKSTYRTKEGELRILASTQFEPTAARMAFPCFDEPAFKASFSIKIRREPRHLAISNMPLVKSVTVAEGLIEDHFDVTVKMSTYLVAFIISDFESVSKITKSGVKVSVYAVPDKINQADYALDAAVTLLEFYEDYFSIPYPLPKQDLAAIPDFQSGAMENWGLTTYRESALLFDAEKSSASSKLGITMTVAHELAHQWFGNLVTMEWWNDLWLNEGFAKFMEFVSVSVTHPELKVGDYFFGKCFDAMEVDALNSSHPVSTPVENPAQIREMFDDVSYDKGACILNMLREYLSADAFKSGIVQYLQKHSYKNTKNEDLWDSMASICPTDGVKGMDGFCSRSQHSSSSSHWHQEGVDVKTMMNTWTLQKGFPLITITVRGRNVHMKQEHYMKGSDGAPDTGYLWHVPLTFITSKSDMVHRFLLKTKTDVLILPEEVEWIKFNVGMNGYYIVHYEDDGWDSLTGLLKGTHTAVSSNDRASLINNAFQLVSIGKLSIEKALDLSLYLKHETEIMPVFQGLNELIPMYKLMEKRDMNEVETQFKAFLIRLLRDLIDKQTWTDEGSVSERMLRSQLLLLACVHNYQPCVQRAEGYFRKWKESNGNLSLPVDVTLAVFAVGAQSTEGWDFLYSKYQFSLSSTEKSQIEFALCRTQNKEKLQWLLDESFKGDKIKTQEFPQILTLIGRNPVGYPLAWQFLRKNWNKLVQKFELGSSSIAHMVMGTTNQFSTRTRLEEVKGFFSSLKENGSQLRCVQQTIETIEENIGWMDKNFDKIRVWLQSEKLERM

IC50 [1]: 18 µM (active) | IC50 [2]: 3.2 µM (active) | IC50 (Albumin): > 94.1 µM (inactive) | IC50 [3]: 9.77 µM (active)
Compound: CN(CCC#N)C(=O)COC(=O)c1c2c(nc3ccccc13)/C(=C\c1ccco1)CC2

Compound: C[C@H](CO)N1C[C@H](C)[C@H](CN(C)C(=O)Nc2cccc3ccccc23)Oc2ncc(C#Cc3ccc(C(F)(F)F)cc3)cc2C1=O
AC50 [4]: 41.1 µM (active) | AC50 [5]: 13.9 µM (active) | AC50 [6]: 25.9 µM (active) | AC50 [7]: 41.4 µM (active) | AC50 [8]: 21.3 µM (active) | AC50 [9]: 23.1 µM (active) | AC50 [10]: 21.7 µM (active)

IC50 [12]: > 69.5 µM (inactive)
Compound: N#Cc1cccc(NC(=O)c2cc(C3CCCCN3S(=O)(=O)c3ccccc3)on2)c1 (stereo unspecified)
IC50 [11]: > 69.5 µM (inactive)

Compound: CNc1cncc(-c2ccc(OC)c(OC)c2)n1
IC50 [13]: > 67.6 µM (inactive) | EC50 [14]: > 67.6 µM (inactive)

Compound: Cc1ccc(S(=O)(=O)Nc2ccc3c(c2)C(=O)N([C@H](C)CO)C[C@@H](C)[C@@H](CN(C)Cc2ccc4c(c2)OCO4)OCCCC[C@@H](C)O3)cc1
AC50 [15]: 29.1 µM (active) | AC50 (Paired box protein Pax-8): 21 µM (active) | AC50 [16]: < 0.26 µM (active)

Compound: CN1C(=O)c2cc(NC(=O)Nc3ccc(Cl)cc3)ccc2OC[C@H]2O[C@@H](CC(=O)NCCN3CCCCC3)CC[C@@H]21
AC50 (HeLa): 22.7 µM (active)

Compound: C[C@H]1CN([C@@H](C)CO)C(=O)c2cc(NC(=O)Nc3ccc(F)cc3)ccc2O[C@@H]1CN(C)S(C)(=O)=O
AC50 (HeLa): 1.16 µM (active)

IC50 [17]: > 69.5 µM (inactive) | IC50 [18]: > 69.5 µM (inactive)
Compound: O=C(CSc1nnc(Cc2cccs2)n1-c1ccc(Cl)cc1)Nc1ccc(OCc2ccccc2)cc1

Compound: CC(C)(C)[S@+]([O-])N1Cc2cc(C(=O)NCc3ccc4c(c3)OCO4)nc(-c3cccc(-c4cccnc4)c3)c2[C@@H]1CCO
AC50 [19]: 1.14 µM (active)

AC50 [20]: 7.13 µM (active)
Compound: O=C(NCC1CC1)[C@H]1[C@H](CO)[C@H]2Cn3c(ccc(/C=C/c4ccccc4)c3=O)[C@@H]1N2C(=O)C1CC1

IC50 [21]: > 100 µM (active)
Compound: CCN(CC)CCN/C=C1\C(=O)CNC1=O

Compound: COc1ccc(C#Cc2ccc([C@@H]3[C@H](CO)N4CCCCN(C(=O)Cc5ccccc5)C[C@@H]34)cc2)cc1
AC50 [22]: 7.73 µM (active) | AC50 [23]: 1.42 µM (active)

IC50 [24]: 42.4 µM (inactive)
Compound: COCCCNC(=O)C1CCN(S(=O)(=O)c2ccc3[nH]c(=O)oc3c2)CC1

Compound: CC(C)=CCCC(C)=CCCC(C)=CCCC=C(C)CCC=C(C)CCC=C(C)C
IC50 [25]: > 20 µM (inactive) | IC50 [26]: > 20 µM (inactive) | IC50 [27]: > 20 µM (inactive) | IC50 [28]: > 20 µM (inactive) | IC50 [29]: > 20 µM (inactive) | IC50 [30]: > 20 µM (inactive) | IC50 [31]: > 20 µM (inactive) | IC50 [32]: > 20 µM (inactive)
